BindingDB's records for doi:10.1021/acsmedchemlett.0c00015 (The Genomics Institute of The Novartis Research Foundation, 2020)

Tests used:
[1] = Inhibition of TRKC (unknown origin) transfected in mouse Ba/F3 cells assessed as reduction in cell viability incubated for 48 hrs by brightglo-luciferase reporter gene assay
[2] = Inhibition of MET (unknown origin) transfected in mouse Ba/F3 cells assessed as reduction in cell viability incubated for 48 hrs by brightglo-luciferase reporter gene assay
[3] = Inhibition of FLT3 (unknown origin) transfected in mouse Ba/F3 cells assessed as reduction in cell viability incubated for 48 hrs by brightglo-luciferase reporter gene assay
[4] = Inhibition of TIE1 (unknown origin) transfected in mouse Ba/F3 cells assessed as reduction in cell viability incubated for 48 hrs by brightglo-luciferase reporter gene assay
[5] = Inhibition of PDGFRbeta (unknown origin) transfected in mouse Ba/F3 cells assessed as reduction in cell viability incubated for 48 hrs by brightglo-luciferase reporter gene assay
[6] = Inhibition of FMS (unknown origin) transfected in mouse Ba/F3 cells assessed as reduction in cell viability incubated for 48 hrs by brightglo-luciferase reporter gene assay
[7] = Inhibition of FGFR2 (unknown origin) transfected in mouse Ba/F3 cells assessed as reduction in cell viability incubated for 48 hrs by brightglo-luciferase reporter gene assay
[8] = Inhibition of KDR (unknown origin) transfected in mouse Ba/F3 cells assessed as reduction in cell viability incubated for 48 hrs by brightglo-luciferase reporter gene assay
[9] = Inhibition of TYRO3 (unknown origin) transfected in mouse Ba/F3 cells assessed as reduction in cell viability incubated for 48 hrs by brightglo-luciferase reporter gene assay
[10] = Inhibition of TEL/KDR (unknown origin) transfected in mouse Ba/F3 cells assessed as reduction in cell viability incubated for 48 hrs by brightglo-luciferase reporter gene assay
[11] = Inhibition of NPM/ALK (unknown origin) transfected in mouse Ba/F3 cells assessed as reduction in cell viability incubated for 48 hrs by brightglo-luciferase reporter gene assay
[12] = Inhibition of JAK2 (unknown origin) transfected in mouse Ba/F3 cells assessed as reduction in cell viability incubated for 48 hrs by brightglo-luciferase reporter gene assay
[13] = Inhibition of FGFR1 (unknown origin) transfected in mouse Ba/F3 cells assessed as reduction in cell viability incubated for 48 hrs by brightglo-luciferase reporter gene assay
[14] = Inhibition of KIF5B-RET V804M mutant (unknown origin) transfected in mouse Ba/F3 cells assessed as reduction in cell viability incubated for 48 hrs by brightglo-luciferase reporter gene assay
[15] = Inhibition of MER (unknown origin) transfected in mouse Ba/F3 cells assessed as reduction in cell viability incubated for 48 hrs by brightglo-luciferase reporter gene assay
[16] = Inhibition of FLT1 (unknown origin) transfected in mouse Ba/F3 cells assessed as reduction in cell viability incubated for 48 hrs by brightglo-luciferase reporter gene assay
[17] = Inhibition of SRC (unknown origin) transfected in mouse Ba/F3 cells assessed as reduction in cell viability incubated for 48 hrs by brightglo-luciferase reporter gene assay
[18] = Inhibition of ZAP70 (unknown origin) transfected in mouse Ba/F3 cells assessed as reduction in cell viability incubated for 48 hrs by brightglo-luciferase reporter gene assay
[19] = Inhibition of TRKA (unknown origin) transfected in mouse Ba/F3 cells assessed as reduction in cell viability incubated for 48 hrs by brightglo-luciferase reporter gene assay
[20] = Inhibition of FGFR3 (unknown origin) transfected in mouse Ba/F3 cells assessed as reduction in cell viability incubated for 48 hrs by brightglo-luciferase reporter gene assay
[21] = Inhibition of ROS (unknown origin) transfected in mouse Ba/F3 cells assessed as reduction in cell viability incubated for 48 hrs by brightglo-luciferase reporter gene assay
[22] = Inhibition of PDGFRalpha (unknown origin) transfected in mouse Ba/F3 cells assessed as reduction in cell viability incubated for 48 hrs by brightglo-luciferase reporter gene assay
[23] = Inhibition of INSR (unknown origin) transfected in mouse Ba/F3 cells assessed as reduction in cell viability incubated for 48 hrs by brightglo-luciferase reporter gene assay
[24] = Inhibition of CCDC6/RET (unknown origin) transfected in human LC2/ad cells assessed as reduction in cell viability incubated for 6 days by CellTiter Glo assay
[25] = Inhibition of RON (unknown origin) transfected in mouse Ba/F3 cells assessed as reduction in cell viability incubated for 48 hrs by brightglo-luciferase reporter gene assay
[26] = Inhibition of LYN (unknown origin) transfected in mouse Ba/F3 cells assessed as reduction in cell viability incubated for 48 hrs by brightglo-luciferase reporter gene assay
[27] = Inhibition of BLK (unknown origin) transfected in mouse Ba/F3 cells assessed as reduction in cell viability incubated for 48 hrs by brightglo-luciferase reporter gene assay
[28] = Inhibition of BMX (unknown origin) transfected in mouse Ba/F3 cells assessed as reduction in cell viability incubated for 48 hrs by brightglo-luciferase reporter gene assay
[29] = Inhibition of KIF5B-RET (unknown origin) transfected in mouse Ba/F3 cells assessed as reduction in cell viability incubated for 48 hrs by brightglo-luciferase reporter gene assay
[30] = Inhibition of RET (unknown origin) transfected in mouse Ba/F3 cells assessed as reduction in cell viability incubated for 48 hrs by brightglo-luciferase reporter gene assay
[31] = Inhibition of LCK (unknown origin) transfected in mouse Ba/F3 cells assessed as reduction in cell viability incubated for 48 hrs by brightglo-luciferase reporter gene assay
[32] = Inhibition of TRKB (unknown origin) transfected in mouse Ba/F3 cells assessed as reduction in cell viability incubated for 48 hrs by brightglo-luciferase reporter gene assay
[33] = Inhibition of FGR (unknown origin) transfected in mouse Ba/F3 cells assessed as reduction in cell viability incubated for 48 hrs by brightglo-luciferase reporter gene assay
[34] = Inhibition of IGF1R (unknown origin) transfected in mouse Ba/F3 cells assessed as reduction in cell viability incubated for 48 hrs by brightglo-luciferase reporter gene assay
[35] = Inhibition of FGFR4 (unknown origin) transfected in mouse Ba/F3 cells assessed as reduction in cell viability incubated for 48 hrs by brightglo-luciferase reporter gene assay
[36] = Inhibition of SYK (unknown origin) transfected in mouse Ba/F3 cells assessed as reduction in cell viability incubated for 48 hrs by brightglo-luciferase reporter gene assay
[37] = Inhibition of KIT (unknown origin) transfected in mouse Ba/F3 cells assessed as reduction in cell viability incubated for 48 hrs by brightglo-luciferase reporter gene assay

| SMILES | IC50 [1] [nM] | IC50 [2] [nM] | IC50 [3] [nM] | IC50 [4] [nM] | IC50 [5] [nM] | IC50 [6] [nM] | IC50 [7] [nM] | IC50 [8] [nM] | IC50 [9] [nM] | IC50 [11] [nM] | IC50 [12] [nM] | IC50 [13] [nM] | IC50 [14] [nM] | IC50 [15] [nM] | IC50 [16] [nM] | IC50 [18] [nM] | IC50 [19] [nM] | IC50 [20] [nM] | IC50 [21] [nM] | IC50 [22] [nM] | further results |
| --- | --- | --- | --- | --- | --- | --- | --- | --- | --- | --- | --- | --- | --- | --- | --- | --- | --- | --- | --- | --- | --- |
| COc1ccc(-c2cnn3c(N)c(-c4ccccc4)c(OC4CCN(C)CC4)nc23)cc1OC | > 11000 | > 11000 | 1700 | > 11000 | 100 | 400 | 3700 | > 11000 | > 11000 | 8300 | > 1300 | > 5600 | 1800 | > 11000 | > 11000 | > 11000 | > 11000 | > 9800 | > 11000 | 93 | IC50 [10]: 1400 nM; IC50 [17]: 120 nM; IC50 [23]: > 11000 nM; IC50 [24]: 95 nM; IC50 [25]: > 11000 nM; IC50 [26]: 410 nM; IC50 [27]: 520 nM; IC50 [28]: > 11000 nM; IC50 [29]: 37 nM; IC50 [30]: 170 nM; IC50 [31]: 110 nM; IC50 [32]: > 11000 nM; IC50 [33]: 98 nM; IC50 [34]: > 11000 nM; IC50 [35]: > 11000 nM; IC50 [36]: 7600 nM |
| COC(=O)Nc1ccc(-c2c(OC3CCN(C)CC3)nc3c(-c4ccc(OC)c(OC)c4)cnn3c2N)cc1 | 1400 | > 11000 | 3400 | > 10000 | 22 | 82 | 8 | 26 | 3700 | 1200 | 84 | 10 | 19 | 86 | 3000 | 9100 | 2800 | 430 | 5500 | 17 | IC50 [37]: 20 nM; IC50 [23]: > 9100 nM; IC50 [25]: 6000 nM; IC50 [26]: 67 nM; IC50 [27]: 230 nM; IC50 [28]: > 7400 nM; IC50 [29]: 6 nM; IC50 [30]: 6 nM; IC50 [31]: 2400 nM; IC50 [32]: 2100 nM; IC50 [33]: 440 nM; IC50 [34]: > 7500 nM; IC50 [35]: 35 nM; IC50 [36]: 1400 nM |
